# Patent US12016834B2, “Small molecule inhibitors of SLC25A1” (GEORGETOWN UNIVERSITY, priority 2017, dated 2024)
# Experiments:
# MP1 cells [1] = assay: Viability (Crystal Violet) and drug interaction (R index); assay type: cell-based, human
# Description: (§1) Cellular proliferation and cytotoxicity assays. […] The cells were then washed with 1×PBS and fixed with cold 100% methanol at−20° C. for 20 minutes. Methanol was washed off and the cells were stained with 0.5% crystal violet dissolved in 25% methanol and water at 4° C. for 20 minutes. The staining was washed off using deionized (DI) water and the plate was dried overnight. On the second day, 100 mM sodium citrate in 50% ethanol and 50% water was added to the wells and absorbance at 550 nm was measured and corrected with readings at 405 nm. In other experiments, cell viability was assessed by trypan blue exclusion and visual count of the live cells was performed.
# (§2) Statistical methods for drug interactions. […] Sexp/Sobs=1.0 denotes an additive interaction, while >1.0 denotes a synergistic interaction. R index values approaching 2.0 are indicative of strong synergy.
# MP2 cells [2] = assay: as above; assay type: cell-based, human; settings: CTPI-2 with either cisplatin or AZD9291, 5 days
# Description: as §1, §2
# MP3 cells = assay: as above; assay type: cell-based, human; settings: CTPI-2 with either cisplatin or AZD9291, 5 days
# Description: as §1, §2
# MP1 tumor spheres = assay: Spheroid-based matrix invasion assay (invadopodia); assay type: cell-based, human; settings: spheres embedded in geltrex
# Description: Invadopodia measurements. After embedding the spheres in a 3D matrix, their extent of invasion was monitored over […]. Using an inverted microscope set at a magnification of 20×, images of the spheres were obtained at 0 hours, 24 hours, and 48 hours after plating. Analysis for invasion was done using ‘imageJ’ by NIH. The area of invasion was measured by sketching an outline around the spheres using the freehand draw tool. The ‘measure’ tool in ‘Analyze’ on the top menu calculated the area for the selected spheroid. The areas of just the spheres (inner area) and the area of the spheres along with its invadopodia (outer area) were measured. The percent difference between the outer area and the inner area was graphed to understand the extent of invasion in each cell type at different time points. The obtained areas for all the spheres were graphed. Spheres of similar areas were selected, whereas the outliers were eliminated so as to compare the spheres of similar volumes.
# H1299 cells = assay: Sphere forming / self-renewal assay; assay type: cell-based, human
# Description: Growth of monolayers and sphere cultures. Tumor cell lines were grown as monolayers in complete Dulbecco's Modified Eagle's Media (DMEM, Gibco; supplemented with 10% fetal bovine serum and 1% of 5,000 units/mL of penicillin-streptomycin (pen-strep), Gibco). To generate spheroids, cells were grown in Falcon bacteriological petri dishes coated with 2% poly(2-hydroxyethyl methacrylate) dissolved in 100% ethanol. The growth media was DMEM/F12 (Gibco) supplemented with 20 ng/mL of epidermal growth factor (EGF), 5 ng/mL of fibroblast growth factor, 0.375% 100× N2 supplements (Gibco), and 1% pen-strep. Monolayer cells were dissociated using 0.25% trypsin-edta (Gibco), whereas spheroid cultures were dissociated using StemPro Accutase (Gibco). Patient derived cell lines were grown as described below in the primary lung cultures section.
# Self-renewal assays. Tumor cells cultured as spheroids were dissociated and diluted in 2× sphere media containing 1% methyl cellulose, which was previously dissolved in cold DMEM/F12 media. Either 200, 500, or 1000 cells were then plated in each 96 well and were incubated in the presence or absence of drugs, as indicated. The spheres were allowed to form for a period of a week to ten days, at which point they were counted. Six biological replicates were used for quantification of the results.
# SLC25A1 = SLC25A1 (Homo sapiens, UniProt P53007); assay: Surface plasmon resonance (SPR) binding to recombinant purified SLC25A1; settings: steady state, 1:1 binding model; human protein
# Description: Surface Plasmon Resonance (SPR). SPR experiments were performed on a Biacore 4000 instrument at room temperature. The NTA sensorchip surface was activated by injecting 0.5 mM NiCl2 for 1 minute. Histidine-tagged recombinant purified SLC25A1 protein (0.07 mg/ml stock concentration) was used as the ligand to capture on the sensor surface. SLC25A1 was dissolved (1:50 dilution) in PBS-P (20 mM phosphate buffer (pH 7.4), 2.7 mM KCl, 137 mM NaCl and 0.05% surfactant P20) buffer and captured onto spots 2 and 4. SLC25A1 was captured to a level of ˜3000. PBS-P was used as the capture running buffer. Small molecules were used as analytes to flow over the ligand immobilized surface. Spot 3 of all flow cells were used as reference. The calculated theoretical Rmax was ˜30 RU based on a 1:1 interaction. The kinetics experiments were performed in the presence of HBS-P (10 mM HEPES (pH7.4), 150 mM NaCl, and 0.05% surfactant P20). The flow rate of all the solutions was maintained at 30 μL/min. The analyte concentrations were 0 μM, […], 6.25 μM, 12.5 μM, 25 μM, 50 μM, and 100 μM. Analyte concentrations showing signs of aggregation were excluded from the analysis. Data were analyzed by Biacore BiaEvaluation software for 1:1 steady state binding model.
# MP1 cells [3] = assay: Tumor xenograft in immuno-compromised mice; assay type: in vivo
# Description: (§3) Mice and treatments. To produce tumor xenografts, 5×10^6 cells derived from either monolayer cultures or GMSC expanded spheres were dissociated with Accutase, resuspended in PBS, and injected subcutaneously in the flanks of female balb athymic mice. Once detectable tumors started to form, their sizes were measured with a caliper in three dimensions and mice were randomized in the different treatment groups. […] Cisplatin was administered at 26 mg/kg every three or four days. AZD9291 was administered at 25/mg/Kg every 3 days. Serial measurements were made every day after the identification of the initial tumor mass to determine growth curves in vivo. Tumor volume was calculated using the formula for a prolate spheroid: volume=[…], where a is the width and b is the length. All animals were sacrificed when the tumors exceeded 1.5 cm. At the completion of experiments, tumors were excised, weighed, and the statistical significances of differences in tumor volume were assessed. Animals were monitored once a week for the presence of signs of disease, particularly neurological disturbances or weight loss, and they were weighed periodically.
# (§4) Statistics. For the animal studies, power calculations for each treatment group were first determined. The number of animals was calculated to detect a 50% difference at alpha=0.05 and power=0.8. Statistical significance was assessed using both unpaired, two-tailed Student t test, and analysis of variance (ANOVA). Significant differences are indicated using the standard […] scale (P<0.05, significant; P<0.01, highly significant; P<0.001, extremely significant).
# MP2 cells [4] = assay: Tumor xenograft in immuno-compromised mice; assay type: in vivo; settings: co-treatment with AZD9291, relative to AZD9291 alone
# Description: as §3, §4
# Chain of SLC25A1 (P53007 14-311): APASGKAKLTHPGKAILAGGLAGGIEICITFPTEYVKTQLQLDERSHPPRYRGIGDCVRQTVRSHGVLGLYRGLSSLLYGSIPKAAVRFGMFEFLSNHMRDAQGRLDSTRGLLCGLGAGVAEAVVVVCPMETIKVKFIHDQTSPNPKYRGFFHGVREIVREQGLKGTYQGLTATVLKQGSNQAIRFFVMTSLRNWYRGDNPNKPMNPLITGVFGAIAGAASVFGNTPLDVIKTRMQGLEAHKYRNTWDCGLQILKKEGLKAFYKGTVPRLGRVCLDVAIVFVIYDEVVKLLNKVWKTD
smiles,measurement,setting,value
O=C(O)c1ccccc1NS(=O)(=O)c1ccc(Cl)c([N+](=O)[O-])c1 [CTPI-2],"re-sensitization, type of drug interaction (R index)","MP1 cells [1]; CTPI-2 with either cisplatin or AZD9291, 5 days",starkly synergistic
same,sensitivity of a single cisplatin-resistant clone,MP1 cells [1]; co-treatment with cisplatin (FIG. 15D),re-sensitized to cisplatin
same,"re-sensitization, type of drug interaction (R index)",MP2 cells [2],starkly synergistic
same,"re-sensitization, type of drug interaction (R index)",MP3 cells,starkly synergistic
same,matrix invasion,MP1 tumor spheres,completely reverted this phenotype
same,"sphere forming capacity, compared with CTPI-1",H1299 cells; FIG. 2E,inhibited sphere forming capacity more efficiently than CTPI-1
same,activity in spheres versus 2D/monolayer cultures,H1299 cells; sphere forming assay compared with monolayer,significantly more prominent in spheres than in 2D cultures
same,Kd,SLC25A1,5.3 µM
same,"tumor growth inhibition, single agent","MP1 cells [3]; 26 mg/Kg alternate days i.p., GMSC-derived versus monolayer-derived tumors",more effective in inhibiting the growth of GMSC-derived MP1 tumors
same,body weights,MP1 cells [3]; 26 mg/Kg at alternate days intra-peritoneally,remained unchanged
same,tolerability,"MP1 cells [3]; 26 mg/Kg at alternate days intra-peritoneally, entire treatment period",well tolerated
same,"tumor growth inhibition, combination",MP1 cells [3]; CTPI-2 added to the cisplatin regimen,very significant
same,stem cell markers in tumors (immuno-blot),MP1 cells [3]; GMSC-derived tumors (FIG. 7F),dramatic reduction
same,tumor doubling times,MP1 cells [3]; relative to mock- and cisplatin-treated groups,significantly extended the tumor doubling times
same,"tumor growth inhibition, combination",MP2 cells [4],prominent enhancement of tumor growth inhibition
